Results taken from patent US9238654B2, “Singleton inhibitors of sumoylation enzymes and methods for their use” (CITY OF HOPE, priority 2010, dated 2016).
Where two headings read alike, the source gives them in different places.

Legend:
SUMO E1 or SUMO E2 = molecular target: T1, SUMO E1 or SUMO E2 (Homo sapiens, UniProt Q9UBE0+Q9UBT2); test: SUMOylation HTS assay, SUMO (AlphaScreen-BSA), SUMOylation of RanGAP1; format: biochemical
T1 sequence (Q9UBE0 1-346): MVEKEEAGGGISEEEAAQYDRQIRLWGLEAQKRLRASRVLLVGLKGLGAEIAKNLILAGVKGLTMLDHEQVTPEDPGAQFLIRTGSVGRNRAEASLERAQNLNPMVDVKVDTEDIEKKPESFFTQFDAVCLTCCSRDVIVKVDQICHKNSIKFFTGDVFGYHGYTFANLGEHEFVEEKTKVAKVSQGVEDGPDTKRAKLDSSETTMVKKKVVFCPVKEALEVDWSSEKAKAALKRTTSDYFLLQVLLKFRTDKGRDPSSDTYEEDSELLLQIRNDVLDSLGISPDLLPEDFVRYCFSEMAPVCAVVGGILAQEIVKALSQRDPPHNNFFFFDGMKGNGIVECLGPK
T1 sequence (Q9UBT2 1-640): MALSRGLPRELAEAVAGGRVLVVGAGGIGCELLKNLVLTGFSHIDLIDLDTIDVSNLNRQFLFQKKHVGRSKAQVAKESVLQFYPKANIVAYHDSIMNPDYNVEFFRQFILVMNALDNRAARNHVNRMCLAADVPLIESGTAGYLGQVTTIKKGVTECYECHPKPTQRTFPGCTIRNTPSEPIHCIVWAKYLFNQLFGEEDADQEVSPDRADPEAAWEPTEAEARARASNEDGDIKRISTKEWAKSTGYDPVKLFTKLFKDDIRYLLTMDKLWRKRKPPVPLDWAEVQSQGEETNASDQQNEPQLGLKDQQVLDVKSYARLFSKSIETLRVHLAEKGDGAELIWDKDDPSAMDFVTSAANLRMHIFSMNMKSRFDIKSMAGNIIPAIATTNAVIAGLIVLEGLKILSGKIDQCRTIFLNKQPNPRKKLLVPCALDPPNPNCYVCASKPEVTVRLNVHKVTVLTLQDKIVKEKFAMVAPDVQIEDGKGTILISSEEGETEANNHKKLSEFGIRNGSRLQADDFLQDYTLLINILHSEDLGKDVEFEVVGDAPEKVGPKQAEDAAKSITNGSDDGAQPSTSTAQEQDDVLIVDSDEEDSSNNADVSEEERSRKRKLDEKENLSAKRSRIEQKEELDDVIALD
Protocol: (§1) A lead compound was selected, and is identified herein as MLS0437113 (FIG. 3).
(§2) Each singleton analog was analyzed to determine its inhibitory effect on SUMOylation and ubiquitination, tested both in the HTS format and gel-based format (FIG. 4).

SUMO E1 [1] = molecular target: T2, SUMO E1 (Homo sapiens, UniProt Q9UBE0+Q9UBT2); test: Gel-based assay of SUMO-RanGap1, E1-SUMO and E2~SUMO thioester conjugate formation; format: biochemical; settings: for Inhibitory effect on SUMOylation, comparison within the series: HTS and gel-based format, each inhibitor 10 μM (FIG. 4); for SUMO-RanGap1 and SUMO-E2 Conjugation Inhibition: strength in words
T2 sequence (Q9UBE0 1-346): T1 sequence (Q9UBE0 1-346)
T2 sequence (Q9UBT2 1-640): T1 sequence (Q9UBT2 1-640)
Protocol: FIG. 4 illustrates a representative assay to determine the efficacy of E1 inhibitors generated from a singleton probe. Stereo-specific effects of this series in inhibiting the SUMO E1. […] Negative and positive controls were reactions in the absence and presence of ATP. […] The compounds that are immediately right to them in the assays, MLS-0437114 and MLS-0437121, are their stereo-isomers, respectively. The stereo chemistry was determined by X-ray crystallography.
as §2
The molecular weight (MW), IC50, strength of SUMO-RanGap1 and SUMO-E2 conjugation inhibition of the SUMO E1 inhibitors derived from the singleton scaffold (see Table 1 above for structures) generated according to the embodiments herein are shown in Table 3 below.

SUMO E1 [2] = molecular target: T2, SUMO E1; test: Rate of SUMO~E1 product formation with increasing inhibitor concentrations; format: biochemical
Protocol: Data is analyzed by fitting to a rectangular hyperbolic to extract IC50 (lower left) or the solution to a quadratic equation to determine Ki^app (lower right).
Their inhibitory constants were measured in the reaction to monitor the rate of SUMO˜E1 product formation in the presence of increasing concentrations of inhibitors (FIG. 5). Inhibition studies were performed in both the presence and absence of 0.02% Triton X-100 to ensure against potential promiscuous inhibition by premicelles due to the formation of aggregates. Inhibition data was fit to a rectangular hyperbolic to extract an IC50 (Equation 1). The Ki^app was extracted by fitting the percent inhibition as a function of inhibitor concentration using equations 1 and 2 (FIG. 5) (Spengler et al. 2005). % Inhibition=([I]*Vmax)/([I]+IC50) (Equation 1) v/v0=(1−(([E]0+[I]+Ki^app)−(([E]0+[I]+Ki^app)^2−4([E]0[I]))^1/2)/2[E]0 (Equation 2)

[3] = Stability in Tris buffer, parent remaining by HPLC-MS; format: physicochemical; settings: for % Remaining after 60 min in 50 mM Tris (−BSA): without BSA; for % Remaining after 60 min in 50 mM Tris (+BSA): with BSA
Protocol: Stable compounds in Tris were tested with and without BSA. Amount of parent compound remaining was quantified using HPLC-MS (area under the curve (AUC) method).

[4] = test system: Immortalized human hepatocytes, Fa2N-4 cells; test: Hepatocyte toxicity, cell viability by cellular ATP levels; format: cell-based; settings: concentrations up to 50 μM, 24 hrs
Protocol: FIG. 10 illustrates that E1 inhibitor MLS-0437113 has low toxicity in a normal liver cell line. Immortalized human hepatocytes, Fa2N-4 cells (XenoTech) were seeded at ˜50-60K cells/well, and incubated with a range of concentrations (0.01-50 μM) 1, in duplicate, for 24 hrs at 37° C., 5% CO2. Cell viability was determined by cellular ATP levels using the Luminescence ATP Detection Assay System (Tecan).

ubiquitin E1 = molecular target: T3, ubiquitin E1 (Homo sapiens, UniProt P22314); test: Poly-ubiquitination assay using ubiquitin, ubiquitin E1, Ubc5 and Apc11; format: biochemical; settings: SUMO E1 versus ubiquitin E1, derived from the IC50s of HTS assays
T3 sequence (P22314 1-1058): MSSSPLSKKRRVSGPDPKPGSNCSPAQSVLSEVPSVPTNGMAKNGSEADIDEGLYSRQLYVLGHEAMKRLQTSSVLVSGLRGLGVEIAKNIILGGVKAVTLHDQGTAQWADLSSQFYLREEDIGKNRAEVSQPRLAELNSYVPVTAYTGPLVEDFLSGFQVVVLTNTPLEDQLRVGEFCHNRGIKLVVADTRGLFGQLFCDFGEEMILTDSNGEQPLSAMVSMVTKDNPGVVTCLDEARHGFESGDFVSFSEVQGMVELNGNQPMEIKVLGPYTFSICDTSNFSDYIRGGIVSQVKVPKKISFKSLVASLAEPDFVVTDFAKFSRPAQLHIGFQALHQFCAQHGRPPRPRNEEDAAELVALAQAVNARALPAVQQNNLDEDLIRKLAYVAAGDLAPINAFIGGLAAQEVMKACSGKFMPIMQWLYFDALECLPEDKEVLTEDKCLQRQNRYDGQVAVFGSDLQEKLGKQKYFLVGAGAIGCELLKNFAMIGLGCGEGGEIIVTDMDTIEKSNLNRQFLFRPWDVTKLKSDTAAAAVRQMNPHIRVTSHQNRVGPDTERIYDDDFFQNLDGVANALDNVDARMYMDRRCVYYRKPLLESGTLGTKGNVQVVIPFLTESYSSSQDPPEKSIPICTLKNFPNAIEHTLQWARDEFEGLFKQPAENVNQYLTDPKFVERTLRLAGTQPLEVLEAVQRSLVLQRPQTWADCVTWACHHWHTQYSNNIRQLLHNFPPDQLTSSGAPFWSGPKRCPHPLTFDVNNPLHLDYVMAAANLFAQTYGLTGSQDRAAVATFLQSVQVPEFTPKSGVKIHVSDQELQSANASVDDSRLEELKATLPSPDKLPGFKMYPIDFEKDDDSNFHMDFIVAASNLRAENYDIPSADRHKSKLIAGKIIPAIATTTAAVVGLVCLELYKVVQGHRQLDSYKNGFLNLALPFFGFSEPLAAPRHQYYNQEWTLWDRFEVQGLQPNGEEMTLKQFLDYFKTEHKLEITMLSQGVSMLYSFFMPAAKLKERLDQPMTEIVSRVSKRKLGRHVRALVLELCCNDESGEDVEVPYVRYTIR
Protocol: as §1, §2

MCF-7 cells = test: Inhibition of global SUMOylation in cells, Western blot with anti-SUMO antibodies; format: cell-based; settings: compound in culture media 8-18 h
Protocol: Western blots (probed with anti-SUMO2/3 antibodies) of cell lysates from MCF-7 cells treated with the inhibitor. SUMO2/3 modifies many proteins as poly-SUMO chains, and is detected as high molecular weight smears.
In this experiment, the compound was added to cell culture media at the indicated concentrations for 8-18 h. Then SUMOylated proteins were detected using anti-SUMO antibodies.

| Structure (SMILES) | SUMO (AlphaScreen-BSA) IC50 (SUMO E1 or SUMO E2) | SUMO-RanGap1 and SUMO-E2 Conjugation Inhibition (SUMO E1 [1]) | % Remaining after 60 min in 50 mM Tris (−BSA) [3] | other results |
| --- | --- | --- | --- | --- |
| COC(=O)C1=C(C(=O)OC)[C@@]2([C@@H](Cc3ccccc3)Nc3ccccc3)C=C[C@@H]1O2 (racemic) [MLS-0437113, Dimethyl 1-(2-Phenyl-1-(phenylamino)ethyl)-7-oxabicyclo[2.2.1]hepta-2,5-diene-2,3-dicarboxylate] | 0.47 µM | Strong | 0% | Inhibitory effect on SUMOylation, comparison within the series (SUMO E1 [1]): most potent inhibitor in this series; Inhibition of SUMO E1, potency in words (SUMO E1 [2]): similarly potent; Inhibition of SUMO E1, potency in words (SUMO E1 [2]; listed as MLS0437113): submicromolar inhibition; Stability in Tris buffer, in words [3]: unstable; Toxicity in human hepatocytes [4]: low toxicity |
| COC(=O)C1=C(C(=O)OC)C2([C@H](Cc3ccccc3)Nc3ccccc3)C=CC1O2 (mixture of isomers) [MLS-0437114] | 11.7 µM | Weak | – | Inhibitory effect on SUMOylation, comparison within the series (SUMO E1 [1]): significantly less inhibitory |
| COC(=O)C1=C(C(=O)OC)C2([C@@H](Cc3ccccc3)Nc3ccc(Cl)cc3)C=CC1O2 (mixture of isomers) [MLS-0437120] | 5.2 µM | Weak | 29% | Inhibitory effect on SUMOylation, comparison within the series (SUMO E1 [1]): more inhibitory than MLS-0437121 |
| COC(=O)C1=C(C(=O)OC)C2([C@H](Cc3ccccc3)Nc3ccc(Cl)cc3)C=CC1O2 (mixture of isomers) [MLS-0437121] | 9.2 µM | Very Weak | – | – |
| CCC[C@H](Nc1ccccc1)C12C=C[C@H](O1)C(C(=O)OC)=C2C(=O)OC (stereo in doubt) [MLS-0437313] | – | – | 48% | SUMO/ubiquitin Selectivity (ubiquitin E1): >100; % Remaining after 60 min in 50 mM Tris (+BSA) [3]: 89% |
| COC(=O)C1=C(C(=O)OC)C2([C@@H](Nc3ccccc3)c3ccc(C)cc3)C=C[C@@H]1O2 (stereo in doubt) [MLS-0437317] | – | – | 86% | Inhibition of SUMO E1, potency in words (SUMO E1 [2]): high potency; SUMO/ubiquitin Selectivity (ubiquitin E1): >100; % Remaining after 60 min in 50 mM Tris (+BSA) [3]: 85%; Stability in Tris buffer, in words [3]: stable; Inhibition of global SUMOylation (MCF-7 cells): inhibited global SUMOylation in a dose-dependent manner |
| COC(=O)C1=C(C(=O)OC)C2([C@@H](Cc3ccccc3)Nc3ccc(C)cc3)C=CC1O2 (some centres unmarked) [MLS-0437109] | 6.9 µM | Weak | – | – |
| COC(=O)C1=C(C(=O)OC)C2([C@H](Cc3ccccc3)Nc3ccc(C)cc3)C=CC1O2 (some centres unmarked) [MLS-0437110] | 9.2 µM | Very Weak | – | – |
| C=CC[C@@H](Nc1ccccc1)C12C=CC(O1)C(C(=O)OC)=C2C(=O)OC (some centres unmarked) [MLS-0437111] | 3.3 µM | Strong | – | – |
| COC(=O)C1=C(C(=O)OC)C2([C@@H](Cc3ccccc3)Nc3ccc(OC)cc3)C=CC1O2 (some centres unmarked) [MLS-0437118] | 9.5 µM | Very Weak | – | – |
| C=CC[C@@H](Nc1ccc(Cl)cc1)C12C=CC(O1)C(C(=O)OC)=C2C(=O)OC (some centres unmarked) [MLS-0437126] | 12.5 µM | Weak | – | – |
| C=CC[C@H](Nc1ccc(Cl)cc1)C12C=CC(O1)C(C(=O)OC)=C2C(=O)OC (some centres unmarked) [MLS-0437127] | 11.5 µM | Weak | – | – |
| COC(=O)C1=C(C(=O)OC)C2(C(Nc3ccccc3)c3ccc(F)cc3)C=C[C@@H]1O2 (some centres unmarked) [MLS-0437320] | – | – | 84% | SUMO/ubiquitin Selectivity (ubiquitin E1): >100; % Remaining after 60 min in 50 mM Tris (+BSA) [3]: 87% |
| COC(=O)C1=C(C(=O)OC)C2(C(Nc3ccccc3)c3ccc(OC(F)(F)F)cc3)C=C[C@@H]1O2 (some centres unmarked) [MLS-0437321] | – | – | 82% | SUMO/ubiquitin Selectivity (ubiquitin E1): >100; % Remaining after 60 min in 50 mM Tris (+BSA) [3]: 64% |
